Assays:
[1] = system: maize aquaporins; experiment: Inhibition of water transport through maize aquaporins in the Xenopus oocyte swelling assay; assay type: cell-based
Procedure: (§1) The biological activity of aquaporins is usually determined with Xenopus oocyte swelling assays (Maurel et al, 1993). MIP cRNA is injected into oocytes and after a 3-day incubation the oocytes are shifted to a hypotonic medium. If water channel proteins are present in the plasma membrane, the oocytes swell and burst much faster than the control oocytes. In these conditions oocytes injected with the plasma membrane AtRD28 aquaporin (Daniels et al., 1994) or maize aquaporin cRNAs rapidly increase their volume, indicating the presence of a facilitated water-transport pathway. The osmotic water permeability coefficient (Pf) of the oocyte membrane increases 8-fold over the control. Mercurial compounds were characteristic inhibitors of many water-channel proteins. Water transport through maize aquaporins are inhibited 50% by 1 mM mercuric chloride and this inhibition is reversed by the reducing agent -mercaptoethanol.

[2] = system: Xenopus oocyte; experiment: Xenopus oocyte swelling assay (oocytes injected with aquaporin cRNA, shifted to hypotonic medium); assay type: cell-based; conditions: 3-day incubation, versus control oocytes
Procedure: as §1

## OCCS [-mercaptoethanol]
[1]; reducing agent added after inhibition by 1 mM mercuric chloride
  reversal of the mercuric chloride inhibition of water transport through maize aquaporins: reversed

## [Cl][Hg][Cl] [mercuric chloride]
[1]; 1 mM mercuric chloride
  inhibition of water transport through maize aquaporins: 50%

B1: AtRD28 aquaporin: plasma membrane AtRD28 aquaporin (Daniels et al., 1994), injected into oocytes as cRNA (protein, UniProt P30302 1-285, looked up)
Aquaporin PIP2-3: MAKDVEGPDGFQTRDYEDPPPTPFFDAEELTKWSLYRAVIAEFVATLLFLYVTVLTVIGYKIQSDTKAGGVDCGGVGILGIAWAFGGMIFILVYCTAGISGGHINPAVTFGLFLARKVSLIRAVLYMVAQCLGAICGVGFVKAFQSSHYVNYGGGANFLADGYNTGTGLAAEIIGTFVLVYTVFSATDPKRNARDSHVPVLAPLPIGFAVFMVHLATIPITGTGINPARSFGAAVIFNKSKPWDDHWIFWVGPFIGATIAAFYHQFVLRASGSKSLGSFRSAANV
[2]
  increase of the osmotic water permeability coefficient (Pf) of the oocyte membrane over the control: 8 fold

From patent US6313375A, “Maize aquaporins and uses thereof” (Pioneer Hi-Bred International, Inc., priority 1999, dated 2001)
